The text below walks through data of US8383629B2, “Inhibitors of 11β-hydroxysteroid dehydrogenase type 1” (Vitae Pharmaceuticals, Inc., priority 2008, dated 2013).

The assay has as its target T1, human 11β-HSD1 (Homo sapiens, UniProt P28845).
T1 construct: expressed in transfected cells; host or cells: CHO cells (microsomes)
Put plainly: Inhibition of microsomal preparation of 11β-HSD1 (SPA, Biological Test Example 1). In kind it is biochemical. The settings on record: for inhibition at 0.1 µM: 100 nM; for inhibition at 0.111 µM: 111 nM; for IC50: microsomes from CHO cells overexpressing human 11β-HSD1, read-out: IC50 Range. The protocol: The inhibition of microsomal preparation of 11β-HSD1 by compounds of the invention was measured essentially as previously described (K. Solly, S. S. Mundt, H. J. Zokian, G. J. Ding, A. Hermanowski-Vosatka, B. Strulovici, and W. Zheng, High-Throughput Screening of 11-Beta-Hydroxysteroid Dehydrogenase Type 1 in Scintillation Proximity Assay Format. Assay Drug Dev Technol 3 (2005) 377-384). All reactions were carried out at rt in 96 well clear flexible PET Microbeta plates (PerkinElmer). The assay begins by dispensing 49 μl of substrate solution (50 mM HEPES, pH 7.4, 100 mM KCl, 5 mM NaCl, 2 mM MgCl2, 2 mM NADPH and 160 nM [^3H]cortisone (1 Ci/mmol)) and mixing in 1 μL of the test compounds in DMSO previously diluted in half-log increments (8 points) starting at 0.1 mM. After a 10 minute pre-incubation, 50 μL of enzyme solution containing microsomes isolated from CHO cells overexpressing human 11β-HSD1 (10-20 μg/ml of total protein) was added, and the plates were incubated for 90 minutes at rt. The reaction was stopped by adding 50 μl of the SPA beads suspension containing 10 μM 18β-glycyrrhetinic acid, 5 mg/ml protein A coated YSi SPA beads (GE Healthcare) and 3.3 μg/ml of anti-cortisol antibody (East Coast Biologics) in Superblock buffer (Bio-Rad). The plates were shaken for 120 minutes at rt, and the SPA signal corresponding to [^3H]cortisol was measured on a Microbeta plate reader.

T1 sequence (P28845 whole entry): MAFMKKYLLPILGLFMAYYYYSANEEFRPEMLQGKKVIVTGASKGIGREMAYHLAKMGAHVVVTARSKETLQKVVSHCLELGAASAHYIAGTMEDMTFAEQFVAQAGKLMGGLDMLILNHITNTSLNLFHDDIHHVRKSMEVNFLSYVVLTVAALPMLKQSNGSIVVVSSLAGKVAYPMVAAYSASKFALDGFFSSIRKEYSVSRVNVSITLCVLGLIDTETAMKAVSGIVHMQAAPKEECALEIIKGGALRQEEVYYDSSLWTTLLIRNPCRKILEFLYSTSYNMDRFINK

Take `CCOC(=O)CC1CC2(CCN(C(=O)/C=C/c3ccccc3C(F)(F)F)CC2)c2c(Br)cccc21` (racemic) [EXAMPLE 1, (±)-(E)-ethyl 2-(7-bromo-1′-(3-(2-(trifluoromethyl)phenyl)acryloyl)-2,3-dihydrospiro[indene-1,4′-piperidine]-3-yl)acetate]: the inhibition at 0.1 µM stood at 94.9%, the inhibition at 0.111 µM was 89.4% and the IC50 was less than 100 nM.
In the case of `O=C(O)CC1CC2(CCN(C(=O)/C=C/c3ccccc3C(F)(F)F)CC2)c2c(Br)cccc21` (racemic) [EXAMPLE 2, (±)-(E)-2-(7-bromo-1′-(3-(2-(trifluoromethyl)phenyl)acryloyl)-2,3-dihydrospiro[indene-1,4′-piperidine]-3-yl)acetic acid], testing at 0.1 µM gave an inhibition of 91.7%, 0.111 µM produced 97.4% inhibition and the concentration for half-maximal inhibition (IC50) is less than 100 nM.
For the compound `O=C(O)CC1CC2(CCN(C(=O)/C=C/c3ccccc3C(F)(F)F)CC2)c2c(Cl)cccc21` (racemic) [EXAMPLE 3, (±)-(E)-2-(7-chloro-1′-(3-(2-(trifluoromethyl)phenyl)acryloyl)-2,3-dihydrospiro[indene-1,4′-piperidine]-3-yl)acetic acid], testing at 0.1 µM gave an inhibition of 96.3% and the IC50 is less than 100 nM.
For `O=C(O)CC1CC2(CCN(C(=O)/C=C/c3ccc(F)cc3C(F)(F)F)CC2)c2c(Cl)cccc21` (racemic) [EXAMPLE 4, (±)-(E)-2-(7-chloro-1′-(3-(4-fluoro-2-(trifluoromethyl)phenyl)acryloyl)-2,3-dihydrospiro[indene-1,4′-piperidine]-3-yl)acetic acid], the inhibition at 0.111 µM turned out to be 94.2% and the half-inhibitory concentration (IC50) was less than 100 nM.
For `O=C(O)CC1CC2(CCN(C(=O)/C=C/c3cc(F)ccc3C(F)(F)F)CC2)c2c(Cl)cccc21` (racemic) [EXAMPLE 5, (±)-(E)-2-(7-chloro-1′-(3-(5-fluoro-2-(trifluoromethyl)phenyl)acryloyl)-2,3-dihydrospiro[indene-1,4′-piperidine]-3-yl)acetic acid], in that order: 83.3% and less than 100 nM.
As for `NC(=O)CC1CC2(CCN(C(=O)/C=C/c3ccccc3C(F)(F)F)CC2)c2c(Cl)cccc21` (racemic) [EXAMPLE 6, (±)-(E)-2-(7-chloro-1′-(3-(2-(trifluoromethyl)phenyl)acryloyl)-2,3-dihydrospiro[indene-1,4′-piperidine]-3-yl)acetamide], the inhibition at 0.111 µM was found to be 97.4% and the IC50 was less than 100 nM.
As for `CNCCN(C)C(=O)CC1CC2(CCN(C(=O)/C=C/c3ccccc3C(F)(F)F)CC2)c2c(Cl)cccc21` (racemic) [EXAMPLE 7, (±)-(E)-2-(7-chloro-1′-(3-(2-(trifluoromethyl)phenyl)acryloyl)-2,3-dihydrospiro[indene-1,4′-piperidine]-3-yl)-N-methyl-N-(2-(methylamino)ethyl)acetamide], the inhibition at 0.111 µM is 87.3% and the half-inhibitory concentration (IC50) is less than 100 nM.
In the same order, the values of `O=C(O)CC1CC2(CCN(C(=O)/C=C/c3ccccc3Cl)CC2)c2c(Cl)cccc21` (racemic) [EXAMPLE 8, (±)-(E)-2-(7-chloro-1′-(3-(2-chlorophenyl)acryloyl)-2,3-dihydrospiro[indene-1,4′-piperidine]-3-yl)acetic acid] are 85.5% and less than 100 nM.
As for `O=C(O)CC1CC2(CCN(C(=O)/C=C/c3cccc(Cl)c3Cl)CC2)c2c(Cl)cccc21` (racemic) [EXAMPLE 9, (±)-(E)-2-(7-chloro-1′-(3-(2,3-dichlorophenyl)acryloyl)-2,3-dihydrospiro[indene-1,4′-piperidine]-3-yl)acetic acid], the inhibition at 0.111 µM was 77.8% and the IC50 was less than 100 nM.
As for `Cc1ccc2c(c1)C1(CCN(C(=O)/C=C/c3ccccc3C(F)(F)F)CC1)CC2CC(=O)O` (racemic) [EXAMPLE 10, (±)-(E)-2-(6-methyl-1′-(3-(2-(trifluoromethyl)phenyl)acryloyl)-2,3-dihydrospiro[indene-1,4′-piperidine]-3-yl)acetic acid], 0.111 µM produced 87.7% inhibition and the half-inhibitory concentration (IC50) is less than 100 nM.

A word on the inhibition: it is the percentage by which the read-out fell short of the control. Low readings indicate a response near the control, high ones a response far below the control. As a reminder, the IC50 is the point on the concentration scale where inhibition reaches its midpoint.
